According to PubChem BioAssay AID256 (DTP/NCI, 2004):
Toxic doses and inconclusive results are not listed. Rule for the calls: active = survival T/C of 150% or more; inactive = T/C below 125% in these data. Non-standard residues stand in square brackets, D forms with d. Residues, ends and D or L forms follow the SMILES beside them. ξ: configuration not given here. ξI = CCC(C)C(N)C(=O)O

Tested on: CD2F1 mice, L1210 leukemia ip, survival T/C
Test: NCI In Vivo Anticancer Drug Screen. Data for tumor model L1210 Leukemia (intraperitoneal) in CD2F1 (CDF1) mice
Settings: higher = longer survival
In short: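 Compound-dosed mice with transplantable tumor versus matched vehicle controls; endpoint ratio T/C reported.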

[1] = endpoint: mean survival time, dose: 100.0 mg/kg/injection, schedule: Q04DX003 (ip), vehicle: saline with Tween-80
[2] = endpoint: mean survival time, dose: 200.0 mg/kg/injection, schedule: Q04DX003 (ip), vehicle: saline with Tween-80
[3] = endpoint: mean survival time, dose: 400.0 mg/kg/injection, schedule: Q04DX003 (ip), vehicle: saline with Tween-80
[4] = endpoint: mean survival time, dose: 100.0 mg/kg/injection, schedule: Q01DX001 (ip), vehicle: saline
[5] = endpoint: mean survival time, dose: 200.0 mg/kg/injection, schedule: Q01DX001 (ip), vehicle: saline
[6] = endpoint: mean survival time, dose: 400.0 mg/kg/injection, schedule: Q01DX001 (ip), vehicle: saline
[7] = endpoint: mean survival time, dose: 100.0 mg/kg/injection, schedule: Q04DX002 (ip), vehicle: saline with Tween-80
[8] = endpoint: mean survival time, dose: 200.0 mg/kg/injection, schedule: Q04DX002 (ip), vehicle: saline with Tween-80
[9] = endpoint: mean survival time, dose: 400.0 mg/kg/injection, schedule: Q04DX002 (ip), vehicle: saline with Tween-80
[10] = endpoint: mean survival time, dose: 12.5 mg/kg/injection, schedule: Q01DX009 (ip), vehicle: other
[11] = endpoint: mean survival time, dose: 25.0 mg/kg/injection, schedule: Q01DX009 (ip), vehicle: other
[12] = endpoint: mean survival time, dose: 50.0 mg/kg/injection, schedule: Q01DX009 (ip), vehicle: other
[13] = endpoint: mean survival time, dose: 100.0 mg/kg/injection, schedule: Q01DX009 (ip), vehicle: other
[14] = endpoint: mean survival time, dose: 200.0 mg/kg/injection, schedule: Q01DX009 (ip), vehicle: other
[15] = endpoint: mean survival time, dose: 100.0 mg/kg/injection, schedule: Q01DX009 (ip), vehicle: saline with Tween-80
[16] = endpoint: mean survival time, dose: 200.0 mg/kg/injection, schedule: Q01DX009 (ip), vehicle: saline with Tween-80
[17] = endpoint: mean survival time, dose: 400.0 mg/kg/injection, schedule: Q01DX009 (ip), vehicle: saline with Tween-80
[18] = endpoint: mean survival time, dose: 6.25 mg/kg/injection, schedule: Q01DX009 (ip), vehicle: saline with Tween-80
[19] = endpoint: mean survival time, dose: 12.5 mg/kg/injection, schedule: Q01DX009 (ip), vehicle: saline with Tween-80
[20] = endpoint: mean survival time, dose: 50.0 mg/kg/injection, schedule: Q01DX009 (ip), vehicle: saline with Tween-80

Measured: T/C

O=C(/C=C\c1ccccc1)C(=O)/C=C/c1ccccc1
inactive: [1] 94 % of control | [2] 93 % of control | [3] 95 % of control

CCCN(CCC)S(=O)(=O)c1ccc(NC(=O)Oc2ccccc2OC)cc1
inactive: [4] 95 % of control | [5] 91 % of control | [6] 91 % of control

CCC(C)C(NC(=O)CN)C(=O)O (stereo not given) (H-Gly-[ξI]-OH)
inactive: [7] 100 % of control | endpoint: mean survival time, dose: 100.0 mg/kg/injection, schedule: Q04DX002 (ip), vehicle: saline 94 % of control | [8] 103 % of control | endpoint: mean survival time, dose: 200.0 mg/kg/injection, schedule: Q04DX002 (ip), vehicle: saline 90 % of control | [9] 95 % of control | endpoint: mean survival time, dose: 400.0 mg/kg/injection, schedule: Q04DX002 (ip), vehicle: saline 101 % of control

CCOC(=O)C1C(=O)N(C)C(=O)N1c1ccccc1 (stereo not given)
inactive: [10] 98 % of control | [11] 90 % of control | [12] 87 % of control | [13] 93 % of control | [14] 87 % of control

CCN(Cc1cccc(S(=O)(=O)O)c1)c1ccc(C(=C2C=CC(=[N+](CC)Cc3cccc(S(=O)(=O)O)c3)C=C2)c2ccc(S(=O)(=O)O)cc2)cc1
inactive: [15] 103 % of control | [1] 96 % of control | [16] 97 % of control | [2] 93 % of control | [17] 95 % of control | [3] 90 % of control

CCCCCCCCCCCCNC(=O)C[n+]1cccc(C(=O)Nc2ccccc2)c1
inactive: [18] 97 % of control | endpoint: mean survival time, dose: 6.25 mg/kg/injection, schedule: Q04DX003 (ip), vehicle: saline with Tween-80 106 % of control | [19] 97 % of control | endpoint: mean survival time, dose: 12.5 mg/kg/injection, schedule: Q04DX003 (ip), vehicle: saline with Tween-80 100 % of control | endpoint: mean survival time, dose: 25.0 mg/kg/injection, schedule: Q04DX003 (ip), vehicle: saline with Tween-80 106 % of control

CC(O)CN1CC(C)OC(C)C1 (stereo not given)
inactive: endpoint: mean survival time, dose: 100.0 mg/kg/injection, schedule: Q01DX009 (ip), vehicle: saline 100 % of control | endpoint: mean survival time, dose: 100.0 mg/kg/injection, schedule: Q04DX003 (ip), vehicle: saline 103 % of control | endpoint: mean survival time, dose: 200.0 mg/kg/injection, schedule: Q01DX009 (ip), vehicle: saline 100 % of control | endpoint: mean survival time, dose: 200.0 mg/kg/injection, schedule: Q04DX003 (ip), vehicle: saline 103 % of control | endpoint: mean survival time, dose: 400.0 mg/kg/injection, schedule: Q01DX009 (ip), vehicle: saline 100 % of control | endpoint: mean survival time, dose: 400.0 mg/kg/injection, schedule: Q04DX003 (ip), vehicle: saline 101 % of control

O=C(C[P+](c1ccccc1)(c1ccccc1)c1ccccc1)c1ccccc1
inactive: endpoint: mean survival time, dose: 25.0 mg/kg/injection, schedule: Q01DX001 (ip), vehicle: Klucel (hydroxypropylcellulose) (HPC) 107 % of control | endpoint: mean survival time, dose: 50.0 mg/kg/injection, schedule: Q01DX001 (ip), vehicle: Klucel (hydroxypropylcellulose) (HPC) 107 % of control | endpoint: mean survival time, dose: 100.0 mg/kg/injection, schedule: Q01DX001 (ip), vehicle: Klucel (hydroxypropylcellulose) (HPC) 96 % of control | [15] 103 % of control | [16] 97 % of control | [17] 103 % of control

CC(=O)OCC1CCCN1C(C)=O (stereo not given)
inactive: [4] 97 % of control | [5] 97 % of control | [6] 97 % of control

C=C[CH2][Sn]([c]1ccccc1)([c]1ccccc1)[c]1ccccc1
inactive: endpoint: mean survival time, dose: 50.0 mg/kg/injection, schedule: Q04DX003 (ip), vehicle: saline with Tween-80 87 % of control | [1] 91 % of control

O=C1c2ccccc2C(=O)c2c(O)c(CCCN3C(=O)c4ccccc4C3=O)cc(O)c21
inactive: [10] 89 % of control | [11] 87 % of control | [12] 87 % of control | [13] 89 % of control | [14] 97 % of control

C1CC2N=NC1C21CC1.[Cl][Cu][Cl]
inactive: endpoint: mean survival time, dose: 6.25 mg/kg/injection, schedule: Q04DX002 (ip), vehicle: saline with Tween-80 96 % of control | endpoint: mean survival time, dose: 12.5 mg/kg/injection, schedule: Q04DX002 (ip), vehicle: saline with Tween-80 108 % of control

CN(Cc1ccc(C(=O)NC(CCC(=O)O)C(=O)O)cc1)Cc1cnc2nc(N)nc(N)c2n1 (stereo not given)
inactive: endpoint: mean survival time, dose: 1.0 mg/kg/injection, schedule: Q01DX009 (ip), vehicle: water 96 % of control | endpoint: mean survival time, dose: 10.0 mg/kg/injection, schedule: Q01DX009 (ip), vehicle: water 114 % of control

CC(C)(CCC(=S)N1CCOCC1)C1CCCCC1
inactive: [1] 97 % of control | [2] 96 % of control | [3] 97 % of control

O=[N+]([O-])c1ccc(S(=O)(=O)Cc2ccccc2)c([N+](=O)[O-])c1
inactive: endpoint: mean survival time, dose: 75.0 mg/kg/injection, schedule: Q01DX001 (ip), vehicle: other 98 % of control | endpoint: mean survival time, dose: 150.0 mg/kg/injection, schedule: Q01DX001 (ip), vehicle: other 93 % of control | endpoint: mean survival time, dose: 300.0 mg/kg/injection, schedule: Q01DX001 (ip), vehicle: other 106 % of control

Clc1ccccc1CCCBr
inactive: [15] 96 % of control | [1] 92 % of control | [16] 104 % of control | [2] 97 % of control | [17] 106 % of control | [3] 88 % of control

CN(CSc1ccc(Cl)cc1)c1ccccc1
inactive: [20] 96 % of control | [15] 96 % of control | [16] 96 % of control

COC1=C(OC)C(C(O)CO)OC1=O (stereo not given)
inactive: endpoint: mean survival time, dose: 25.0 mg/kg/injection, schedule: Q01DX009 (ip), vehicle: water 93 % of control | endpoint: mean survival time, dose: 50.0 mg/kg/injection, schedule: Q01DX009 (ip), vehicle: water 89 % of control | endpoint: mean survival time, dose: 100.0 mg/kg/injection, schedule: Q01DX009 (ip), vehicle: water 100 % of control | endpoint: mean survival time, dose: 200.0 mg/kg/injection, schedule: Q01DX009 (ip), vehicle: water 94 % of control | endpoint: mean survival time, dose: 400.0 mg/kg/injection, schedule: Q01DX009 (ip), vehicle: water 100 % of control

SC1(SC2(S)CCCCC2)CCCCC1
inactive: [15] 102 % of control | [16] 112 % of control | [17] 103 % of control

Cc1ccc(C2=CC(=O)C(c3ccc(C)cc3C)=CC2=O)c(C)c1
inactive: endpoint: mean survival time, dose: 100.0 mg/kg/injection, schedule: Q01DX001 (ip), vehicle: saline with Tween-80 92 % of control | [7] 86 % of control | endpoint: mean survival time, dose: 200.0 mg/kg/injection, schedule: Q01DX001 (ip), vehicle: saline with Tween-80 91 % of control | [8] 93 % of control | endpoint: mean survival time, dose: 400.0 mg/kg/injection, schedule: Q01DX001 (ip), vehicle: saline with Tween-80 94 % of control | [9] 101 % of control

C=C1OC(n2cnc3c(N)ncnc32)C(O)C1O (stereo not given)
inactive: [4] 98 % of control | [5] 101 % of control | [6] 98 % of control

Nc1nc(CCCCc2ccccc2)c(N=Nc2ccc(Cl)cc2)c(=O)[nH]1
inactive: [15] 90 % of control | [16] 90 % of control | [17] 87 % of control

COC1CC2C=C(C)/C=C/C=C/C(=O)NC(c3ccccc3)C/C=C/CCC(O)CC(=O)C2=C1O (stereo not given)
inactive: endpoint: median survival time, dose: 3.12 mg/kg/injection, schedule: Q01DX009 (ip), vehicle: Klucel (hydroxypropylcellulose) (HPC) 108 % of control | endpoint: median survival time, dose: 6.25 mg/kg/injection, schedule: Q01DX009 (ip), vehicle: Klucel (hydroxypropylcellulose) (HPC) 111 % of control | endpoint: median survival time, dose: 12.5 mg/kg/injection, schedule: Q01DX009 (ip), vehicle: Klucel (hydroxypropylcellulose) (HPC) 101 % of control

C=C(Cl)CSCC
inactive: endpoint: mean survival time, dose: 25.0 mg/kg/injection, schedule: Q01DX009 (ip), vehicle: acetone 114 % of control | endpoint: mean survival time, dose: 50.0 mg/kg/injection, schedule: Q01DX009 (ip), vehicle: acetone 120 % of control

C=Cc1cnc(N)nc1-c1ccc(OC)cc1
inactive: [7] 101 % of control | [8] 96 % of control | [9] 96 % of control

Cc1cc(C)c(C)c(C(C)O)c1C (stereo not given)
inactive: [20] 100 % of control | [15] 100 % of control | [16] 97 % of control

Nc1nc2ccc(Cl)cc2[nH]1
inactive: endpoint: mean survival time, dose: 50.0 mg/kg/injection, schedule: Q01DX009 (ip), vehicle: Klucel (hydroxypropylcellulose) (HPC) 93 % of control | endpoint: mean survival time, dose: 100.0 mg/kg/injection, schedule: Q01DX009 (ip), vehicle: Klucel (hydroxypropylcellulose) (HPC) 91 % of control

CN(C)CC[CH2][Sn]([CH3])([CH3])[CH3]
inactive: endpoint: mean survival time, dose: 3.12 mg/kg/injection, schedule: Q01DX009 (ip), vehicle: saline with Tween-80 104 % of control | [18] 100 % of control | [19] 90 % of control
